From ChEMBL document CHEMBL4610027, “Identification of Mycobacterium tuberculosis CtpF as a target for designing new antituberculous compounds” (Bioorg Med Chem, 2020)
In brackets after ≈: the same amount, converted by molar mass. Activity calls are given as the source filed them. The calls are words filed in the database; no cut-off is given here.

Key:
[1] = system: Mycobacterium tuberculosis; experiment: Antimycobacterial activity against Mycobacterium tuberculosis H37Rv incubated for 6 days by resazurin dye-based colorimetric method; type: functional; details: 144 h
[2] = system: Mycobacterium tuberculosis; experiment: Antimycobacterial activity against Mycobacterium tuberculosis H37Rv assessed as inhibition of bacterial growth at MIC incubated for 21 days by colony formation assay relative to control; type: functional
[3] = Cytotoxicity against mouse MHS cells assessed as cell death at 100 ug/ml incubated for 48 hrs by crystal violet staining based spectrophotometric analysis relative to control
[4] = (§1) Inhibition of calcium stimulated Mycobacterium tuberculosis H37Ra CtpF ATPase activity using Na2ATP as substrate preincubated for 30 mins followed by substrate addition and measured after 30 mins by colorimetric analysis
[5] = Hemolytic activity against human erythrocytes assessed as hemolysis at 100 ug/ml incubated for 2 hrs by spectrophotometric analysis; type: ADME, cell-based, Erythrocyte; details: read-out: Activity
[6] = Octanol/water partition coefficient, log P of the compound; type: physicochemical
[7] = system: Mycobacterium tuberculosis H37Ra; experiment: Inhibition of calcium stimulated Mycobacterium tuberculosis H37Ra CtpF ATPase activity at 100 uM using Na2ATP as substrate preincubated for 30 mins followed by substrate addition and measured after 30 mins by colorimetric analysis relative to control
[8] = system: Mycobacterium tuberculosis; experiment: Potency index, ratio of CPA MIC to test compound MIC for Mycobacterium tuberculosis H37Rv; type: functional
[9] = Inhibition of Bacillus cereus Ca2+ ATPase
Listeria monocytogenes = experiment: Inhibition of Listeria monocytogenes Ca2+ ATPase
[10] = system: Mycobacterium tuberculosis H37Ra; experiment: as §1

SMILES | MIC [1] [µg/mL] | inhibition [2] | Activity [3] [%] | IC50 [4] [µM] | hemolysis at 2 h, 100 ug/ml [5] [%] | logP [6] | inhibition (INH) [2] [%] | inhibition [7] [%] | Ratio [8] | IC50 [9] [µM] | INH (Listeria monocytogenes) [µM] | inhibition [10]
CCC[C@H](C)NC(=O)CSc1nc2cc(S(=O)(=O)Nc3ccccc3OC)ccc2o1 | > 200 | inactive | 39.5 | 35.9 | 1 | 4.08 |  |  |  |  |  | 
NS(=O)(=O)[C@H]1CC=C(CNC(=O)CCCc2c[nH]c3ccccc23)S1 | 50 (≈ 132 µM) |  | 12.9 | 4.4 | 2 | 1.68 | 64 | 44.9 | 0.5 |  |  | 
CCCCC(=O)Nc1cccc(C(=O)NCCCNc2cccnc2)c1 | 100 (≈ 282 µM) |  | 21.4 | 4.2 | 1.2 | 2.91 | 52.9 | 46.9 |  |  |  | 
O=C(CCCC[C@@H]1SC[C@@H]2NC(=O)N[C@@H]21)NCc1cn(-c2ccccc2)nc1-c1ccccc1 | 100 (≈ 210 µM) |  | 30 | 4.1 | 2.4 | 3.34 | 29.5 | 48.2 |  |  |  | 
C[C@@H](OC(=O)CCCNC1=NS(=O)(=O)c2ccccc21)C(=O)c1c[nH]c2ccccc12 | 100 (≈ 228 µM) |  | 31.6 | 11.8 | 2.1 | 1.82 | 37.3 |  |  |  |  | 
COCC(=O)Nc1c(C(=O)OC)n(CCC(C)C)c2ncc(N[C@@H](C)C(C)(C)O)cc12 | 50 (≈ 115 µM) |  | 19.8 | 8 | 0.6 | 3.32 | 60.7 |  | 0.5 |  |  | 
CC(=O)C1=C(O)[C@@H]2[C@H]3c4c[nH]c5cccc(c45)C[C@H]3C(C)(C)N2C1=O [CYCLOPIAZONIC ACID] | 100 (≈ 297 µM) |  | 50.8 | 7.2 | 6.6 | 2.21 | 29.9 |  |  | 4 | 918 | Dose-dependent effect
